Results: US8551984B2, “Aminopyrimidines as SYK inhibitors” (Merck Sharp & Dohme Corp., priority 2009, dated 2013)

Each compound was assayed against recombinant human SYK (GST-hSYK fusion protein) (Homo sapiens, UniProt P43405) (assay: biochemical). Details: Syk IC50, HTRF, recombinant human GST-SYK.
From the text: Homogeneous Time-Resolved Fluorescence (HTRF) Assay for the Recombinant Human SYK Enzyme:

IC50 | SMILES
< 0.5 nM | Cc1cc(Nc2nccc(C(F)(F)F)n2)cc(-c2cnc(C(C)(O)c3ccc(C(=O)O)cc3)s2)c1 (stereo not shown) [4-{1-hydroxy-1-[5-(3-methyl-5-{[4-(trifluoromethyl)pyrimidin-2-yl]amino}phenyl)-1,3-thiazol-2-yl]ethyl}benzoic acid]
2 nM | Cc1cc(Nc2nccc(C(F)(F)F)n2)cc(-c2cnc(C3(O)CC4(CC(C(=O)O)C4)C3)s2)c1 (stereo not shown) [6-hydroxy-6-[5-(3-methyl-5-{[4-(trifluoromethyl)pyrimidin-2-yl]amino}phenyl)-1,3-thiazol-2-yl]spiro[3.3]heptane-2-carboxylic]

Same assay, conditions: hSYK Activity, table after Example 66

IC50 | SMILES
< 100 nM | CC(=O)NC1(c2ncc(-c3cc(C)cc(Nc4nccc(C(F)(F)F)n4)c3)s2)COC1 [66-1]

Same assay, conditions: hSYK Activity, table of Example 23-1

IC50 | SMILES
< 100 nM | NC(=O)[C@H]1CC[C@H](c2ncc(-c3cccc(Nc4nccc(C(F)(F)F)n4)c3)s2)CC1 [23-1]

Same assay, conditions: hSYK Activity, table of Example 28-1

IC50 | SMILES
< 100 nM | CC(C)(O)c1ncc(-c2cc(Nc3nccc(C(F)(F)F)n3)cc(C(F)F)c2)s1 [28-1]

Same assay, conditions: rhSYK Activity, Table 8A

IC50 | SMILES
< 100 nM | Cc1cc(Nc2ncc(F)c(C)n2)cc(-c2cnc([C@]3(O)CC[C@@H](O)CC3)s2)c1 [8A-1]
< 100 nM | Cc1cc(Nc2ncc(Cl)c(C)n2)cc(-c2cnc([C@]3(O)CC[C@@H](O)CC3)s2)c1 [8A-2]
< 100 nM | COc1nc(Nc2cc(C)cc(-c3cnc([C@]4(O)CC[C@@H](O)CC4)s3)c2)ncc1F [8A-3]
< 100 nM | Cc1cc(Nc2ncc(F)c(C3CC3)n2)cc(-c2cnc([C@]3(O)CC[C@@H](O)CC3)s2)c1 [8A-4]
< 100 nM | COc1nc(Nc2cc(C)cc(-c3cnc(C4(O)CCC(O)CC4)s3)c2)ncc1Cl (stereo not shown) [8A-5]
< 100 nM | Cc1cc(Nc2nccc(C(F)(F)F)n2)cc(-c2cnc(C3(O)CCC(O)C(C)(C)C3)s2)c1 (stereo not shown) [8A-6]
< 100 nM | Cc1cc(Nc2ncc(F)c(C)n2)cc(-c2cnc(C3(O)CCC(=O)CC3)s2)c1 [8A-8]

Same assay, conditions: rhSYK Activity, Table 24

IC50 | SMILES
< 100 nM | CC(O)c1ncc(-c2cc(Nc3nccc(C(F)(F)F)n3)cc(N3CCOCC3)c2)s1 (stereo not shown) [24-1]
< 100 nM | CC(=O)c1ncc(-c2cc(Nc3nccc(C(F)(F)F)n3)cc(N3CCOCC3)c2)s1 [24-3]
< 100 nM | CS(=O)(=O)N1CCN(c2cc(Nc3nccc(C(F)(F)F)n3)cc(-c3cnc(C4(O)CCC4)s3)c2)CC1 [24-4]
< 100 nM | CC(O)(c1ncc(-c2cc(Nc3nccc(C(F)(F)F)n3)cc(N3CCOCC3)c2)s1)C1CC1 (stereo not shown) [24-6]
< 100 nM | CC(O)(c1ncc(-c2cc(Nc3nccc(C(F)(F)F)n3)cc(N3CCOCC3)c2)s1)C(F)(F)F (stereo not shown) [24-7]

Same assay, conditions: rhSYK Activity, Table 26

IC50 | SMILES
100 to 1000 nM | FC(F)(F)c1ccnc(Nc2cccc(-c3cnc(C4(F)CCC4)s3)c2)n1 [26-3]

Same assay, conditions: rhSYK Activity, Table 46

IC50 | SMILES
< 100 nM | Cc1cc(Nc2nccc(C(F)(F)F)n2)cc(-c2cnc(C3(O)CCNC(C(F)(F)F)C3)s2)c1 (stereo not shown) [46-1]
< 100 nM | COC(=O)C1CC(O)(c2ncc(-c3cc(C)cc(Nc4nccc(C(F)(F)F)n4)c3)s2)CCN1 (stereo not shown) [46-2]

Same assay, conditions: rhSYK Activity, Table 54B

IC50 | SMILES
< 100 nM | Cc1cc(Nc2nccc(C(F)(F)F)n2)cc(-c2cnc(C3(O)CCN(C(N)=O)C3)s2)c1 (stereo not shown) [54B-2]
100 to 1000 nM | Cc1cc(Nc2nccc(C(F)(F)F)n2)cc(-c2cnc(C3(O)CCN(C(=O)OC(C)(C)C)C3)s2)c1 (stereo not shown) [54B-4]
< 100 nM | Cc1cc(Nc2nccc(C(F)(F)F)n2)cc(-c2cnc(C3(O)CCNC3)s2)c1 (stereo not shown) [54B-5]
< 100 nM | Cc1cc(Nc2nccc(C(F)(F)F)n2)cc(-c2cnc(C3(O)CCN(S(N)(=O)=O)C3)s2)c1 (stereo not shown) [54B-6]
< 100 nM | Cc1cc(Nc2nccc(C(F)(F)F)n2)cc(-c2cnc(C3(O)CCN(S(=O)(=O)NC(=O)OC(C)(C)C)C3)s2)c1 (stereo not shown) [54B-9]
< 100 nM | COc1ccnc(Nc2cc(C)cc(-c3cnc(C4(O)CCN(C(N)=O)C4)s3)c2)n1 (stereo not shown) [54B-10]
< 100 nM | COc1ccnc(Nc2cc(C)cc(-c3cnc(C4(O)CCNC4)s3)c2)n1 (stereo not shown) [54B-11]
< 100 nM | Cc1cc(Nc2nccc(C)n2)cc(-c2cnc(C3(O)CCNC3)s2)c1 (stereo not shown) [54B-12]
< 100 nM | Cc1cc(Nc2nccc(C)n2)cc(-c2cnc(C3(O)CCN(C(N)=O)C3)s2)c1 (stereo not shown) [54B-13]
< 100 nM | Cc1cc(Nc2nccc(C(F)(F)F)n2)cc(-c2cnc(C3(O)CCN(CCO)C3)s2)c1 (stereo not shown) [54B-19]
< 100 nM | Cc1cc(Nc2nccc(C(F)(F)F)n2)cc(-c2cnc(C3(O)CCN(CC(N)=O)C3)s2)c1 (stereo not shown) [54B-20]
< 100 nM | Cc1cc(Nc2nccc(C(F)(F)F)n2)cc(-c2cnc(C3(O)CCN(C(=O)CO)C3)s2)c1 (stereo not shown) [54B-21]
< 100 nM | Cc1cc(Nc2nccc(C(F)(F)F)n2)cc(-c2cnc(C3(O)CCN(CC(=O)O)C3)s2)c1 (stereo not shown) [54B-22]
< 100 nM | Cc1cc(Nc2nccc(C(F)(F)F)n2)cc(-c2cnc(C3(O)CCN(C(=O)C(N)=O)C3)s2)c1 (stereo not shown) [54B-23]
< 100 nM | COC(=O)CN1CCC(O)(c2ncc(-c3cc(C)cc(Nc4nccc(C(F)(F)F)n4)c3)s2)C1 (stereo not shown) [54B-24]
< 100 nM | Cc1cc(Nc2nccc(C(F)(F)F)n2)cc(-c2cnc(C3(O)CCN(C(=O)C(=O)O)C3)s2)c1 (stereo not shown) [54B-25]
< 100 nM | Cc1cc(Nc2nccc(C(F)(F)F)n2)cc(-c2cnc(C3(O)CCN(C(=O)CC(N)=O)C3)s2)c1 (stereo not shown) [54B-26]
< 100 nM | COC(=O)C(=O)N1CCC(O)(c2ncc(-c3cc(C)cc(Nc4nccc(C(F)(F)F)n4)c3)s2)C1 (stereo not shown) [54B-27]
< 100 nM | Cc1cc(Nc2nccc(C(F)(F)F)n2)cc(-c2cnc(C3(O)CCN(C(=O)C(O)CO)C3)s2)c1 (stereo not shown) [54B-28]
< 100 nM | Cc1cc(Nc2nccc(C(F)(F)F)n2)cc(-c2cnc(C3(O)CCN(C(=O)c4ccno4)C3)s2)c1 (stereo not shown) [54B-29]
< 100 nM | Cc1cc(Nc2nccc(C(F)(F)F)n2)cc(-c2cnc(C3(O)CCN(C(=O)C4(O)CCC4)C3)s2)c1 (stereo not shown) [54B-30]
< 100 nM | Cc1cc(Nc2nccc(C(F)(F)F)n2)cc(-c2cnc(C3(O)CCN(C4CCC(C(=O)O)C4)C3)s2)c1 (stereo not shown) [54B-32]
< 100 nM | COC(=O)C1CCC(N2CCC(O)(c3ncc(-c4cc(C)cc(Nc5nccc(C(F)(F)F)n5)c4)s3)C2)C1 (stereo not shown) [54B-34]
100 to 1000 nM | COC(=O)c1cccc(N2CCC(O)(c3ncc(-c4cc(C)cc(Nc5nccc(C(F)(F)F)n5)c4)s3)C2)c1 (stereo not shown) [54B-35]
< 100 nM | Cc1cc(Nc2nccc(C(F)(F)F)n2)cc(-c2cnc(C3(O)CC(C(=O)O)N(C(N)=O)C3)s2)c1 (stereo not shown) [54B-36]
< 100 nM | COC(=O)C1CC(O)(c2ncc(-c3cc(C)cc(Nc4nccc(C(F)(F)F)n4)c3)s2)CN1C(N)=O (stereo not shown) [54B-37]

Same assay, conditions: rhSYK Activity, Table 54C

IC50 | SMILES
< 100 nM | OC1(c2ncc(-c3cccc(Nc4nccc(C(F)(F)F)n4)c3)s2)CCNC1 (stereo not shown) [54C-1]

Same assay, conditions: rhSYK Activity, Table 61A

IC50 | SMILES
< 100 nM | Cc1cc(Nc2nccc(C(F)(F)F)n2)cc(-c2cnc(C(NS(C)(=O)=O)(C3CC3)C3CC3)s2)c1 [61A-1]
100 to 1000 nM | Cc1cc(Nc2nccc(C(F)(F)F)n2)cc(-c2cnc(C(N[S+]([O-])C(C)(C)C)(C3CC3)C3CC3)s2)c1 (stereo not shown) [61A-2]
< 100 nM | Cc1cc(Nc2nccc(C(F)(F)F)n2)cc(-c2cnc(C(C)(C)N)s2)c1 [61A-3]
< 100 nM | Cc1cc(Nc2nccc(C(F)(F)F)n2)cc(-c2cnc(C(C)(C)NS(C)(=O)=O)s2)c1 [61A-4]

Same assay, conditions: rhSYK Activity, Table 65

IC50 | SMILES
< 100 nM | Cc1cc(Nc2nccc(C(F)(F)F)n2)cc(-c2cnc(C3(NC(=O)NC(N)=O)COC3)s2)c1 [65-1]
< 100 nM | COc1ccnc(Nc2cc(C)cc(-c3cnc(C4(NC(=O)NC(N)=O)CCC4)s3)c2)n1 [65-2]
< 100 nM | Cc1cc(Nc2ncccn2)cc(-c2cnc(C3(NC(=O)NC(N)=O)CCC3)s2)c1 [65-3]
< 100 nM | Cc1cc(Nc2nccc(C3CC3)n2)cc(-c2cnc(C3(NC(=O)NC(N)=O)CCC3)s2)c1 [65-4]
< 100 nM | Cc1cc(Nc2nccc(C(F)(F)F)n2)cc(-c2cnc(C3(NC(=O)NC(N)=O)CCNC(=O)CC3)s2)c1 (stereo not shown) [65-6]
< 100 nM | Cc1cc(Nc2ncc(Cl)c(C(F)(F)F)n2)cc(-c2cnc(C3(NC(=O)NC(N)=O)CCNC(=O)CC3)s2)c1 (stereo not shown) [65-7]
< 100 nM | COc1nc(Nc2cc(C)cc(-c3cnc(C4(NC(=O)NC(N)=O)CCC4)s3)c2)ncc1Cl [65-8]

Same assay, conditions: rhSYK Activity, Table 74A

IC50 | SMILES
< 100 nM | Cc1cc(Nc2nccc(C(F)(F)F)n2)cc(-c2cnc(C(C)(C)S(N)(=O)=O)s2)c1 [74A-1]
< 100 nM | CC(C)(c1ncc(-c2cccc(Nc3nccc(C(F)(F)F)n3)c2)s1)S(C)(=O)=O [74A-2]
< 100 nM | CC(C)(c1ncc(-c2cccc(Nc3nccc(C(F)(F)F)n3)c2)s1)S(N)(=O)=O [74A-3]
< 100 nM | COc1ccnc(Nc2cc(C)cc(-c3cnc(C(C)(C)S(N)(=O)=O)s3)c2)n1 [74A-4]
< 100 nM | Cc1cc(Nc2ncc(F)c(C)n2)cc(-c2cnc(C(C)(C)S(N)(=O)=O)s2)c1 [74A-5]
< 100 nM | Cc1cc(Nc2ncc(F)c(C3CC3)n2)cc(-c2cnc(C(C)(C)S(N)(=O)=O)s2)c1 [74A-6]
< 100 nM | COc1nc(Nc2cc(C)cc(-c3cnc(C(C)(C)S(N)(=O)=O)s3)c2)ncc1Cl [74A-7]
< 100 nM | COc1nc(Nc2cc(C)cc(-c3cnc(C(C)(C)S(N)(=O)=O)s3)c2)ncc1F [74A-8]
< 100 nM | Cc1cc(Nc2ncc(Cl)c(C)n2)cc(-c2cnc(C(C)(C)S(N)(=O)=O)s2)c1 [74A-9]
< 100 nM | CC(C)(c1ncc(-c2cc(Nc3nccc(C(F)(F)F)n3)cc(C(F)F)c2)s1)S(N)(=O)=O [74A-11]
< 100 nM | Cc1cc(Nc2nccc(C)n2)cc(-c2cnc(C(C)(C)S(N)(=O)=O)s2)c1 [74A-12]
< 100 nM | Cc1cc(Nc2nccc(C3CC3)n2)cc(-c2cnc(C(C)(C)S(N)(=O)=O)s2)c1 [74A-13]
< 100 nM | COC(=O)CNS(=O)(=O)C(C)(C)c1ncc(-c2cc(C)cc(Nc3nccc(C(F)(F)F)n3)c2)s1 [74A-14]
< 100 nM | Cc1cc(Nc2nccc(C(F)(F)F)n2)cc(-c2cnc(C(C)(C)S(=O)(=O)NCC(=O)O)s2)c1 [74A-15]

Same assay, conditions: rhSYK Activity, table after Example 69

IC50 | SMILES
100 to 1000 nM | Cc1cc(Nc2nccc(C(=O)N3CCOCC3)n2)cc(-c2cnc(C(C)(O)C(F)(F)F)s2)c1 (stereo not shown) [69-1]
